Key:
Type in all cases: functional
NCI-H23 = test: Growth inhibition of human NCI-H23 cells assessed as cell growth at 10 uM incubated for 48 hrs by sulforhodamine B assay relative to control; details: NCI-H23, 48 h, read-out: Activity
SF-295 [1] = test: Growth inhibition of human SF295 cells assessed as cell growth at 0.1 uM incubated for 48 hrs by sulforhodamine B assay relative to control; details: SF-295, 48 h, read-out: Activity
IGROV-1 [2] = test: Growth inhibition of human IGROV1 cells assessed as cell growth at 1 uM incubated for 48 hrs by sulforhodamine B assay relative to control; details: IGROV-1, 48 h, read-out: Activity
RXF 393 [3] = test: Growth inhibition of human RXF393 cells assessed as cell growth at 1 uM incubated for 48 hrs by sulforhodamine B assay relative to control; details: RXF 393, 48 h, read-out: Activity
SN12C = test: Growth inhibition of human SN12C cells assessed as cell growth at 1 uM incubated for 48 hrs by sulforhodamine B assay relative to control; details: read-out: Activity
K562 [4] = test: Growth inhibition of human K562 cells assessed as cell growth at 0.01 uM incubated for 48 hrs by sulforhodamine B assay relative to control; details: K562, 48 h, read-out: Activity
OVCAR-5 [5] = test: Growth inhibition of human OVCAR5 cells assessed as cell growth at 0.01 uM incubated for 48 hrs by sulforhodamine B assay relative to control; details: OVCAR-5, 48 h, read-out: Activity
SK-MEL-2 = test: Growth inhibition of human SK-MEL-2 cells assessed as cell growth at 0.1 uM incubated for 48 hrs by sulforhodamine B assay relative to control; details: SK-MEL-2, 48 h, read-out: Activity
SF-295 [6] = test: Growth inhibition of human SF295 cells assessed as cell growth at 100 uM incubated for 48 hrs by sulforhodamine B assay relative to control; details: SF-295, 48 h, read-out: Activity
OVCAR-3 = test: Growth inhibition of human OVCAR3 cells assessed as cell growth at 1 uM incubated for 48 hrs by sulforhodamine B assay relative to control; details: OVCAR-3, 48 h, read-out: Activity
MDA-MB-435 = test: Growth inhibition of human MDA-MB-435 cells assessed as cell growth at 1 uM incubated for 48 hrs by sulforhodamine B assay relative to control; details: MDA-MB-435, 48 h, read-out: Activity
SF-268 = test: Growth inhibition of human SF268 cells assessed as cell growth at 10 uM incubated for 48 hrs by sulforhodamine B assay relative to control; details: SF-268, 48 h, read-out: Activity
SF-539 = test: Growth inhibition of human SF539 cells assessed as cell growth at 10 uM incubated for 48 hrs by sulforhodamine B assay relative to control; details: SF-539, 48 h, read-out: Activity
SF-295 [7] = test: Growth inhibition of human SF295 cells assessed as cell growth at 0.01 uM incubated for 48 hrs by sulforhodamine B assay relative to control; details: SF-295, 48 h, read-out: Activity
MOLT-4 = test: Growth inhibition of human MOLT4 cells assessed as cell growth at 0.01 uM incubated for 48 hrs by sulforhodamine B assay relative to control; details: MOLT-4, 48 h, read-out: Activity
CCRF-CEM = test: Growth inhibition of human CCRF-CEM cells assessed as cell growth at 0.01 uM incubated for 48 hrs by sulforhodamine B assay relative to control; details: read-out: Activity
HCT-15 = test: Growth inhibition of human HCT15 cells assessed as cell growth at 1 uM incubated for 48 hrs by sulforhodamine B assay relative to control; details: HCT-15, 48 h, read-out: Activity
SK-MEL-28 = test: Growth inhibition of human SK-MEL-28 cells assessed as cell growth at 0.1 uM incubated for 48 hrs by sulforhodamine B assay relative to control; details: SK-MEL-28, 48 h, read-out: Activity
HCC 2998 = test: Growth inhibition of human HCC2998 cells assessed as cell growth at 1 uM incubated for 48 hrs by sulforhodamine B assay relative to control; details: HCC 2998, 48 h, read-out: Activity
RXF 393 [8] = test: Growth inhibition of human RXF393 cells assessed as cell growth at 0.01 uM incubated for 48 hrs by sulforhodamine B assay relative to control; details: RXF 393, 48 h, read-out: Activity
A549 = test: Growth inhibition of human A549/ATCC cells assessed as cell growth at 1 uM incubated for 48 hrs by sulforhodamine B assay relative to control; details: A549, 48 h, read-out: Activity
IGROV-1 [9] = test: Growth inhibition of human IGROV1 cells assessed as cell growth at 0.3 uM incubated for 48 hrs by sulforhodamine B assay relative to control; details: IGROV-1, 48 h, read-out: Activity
UACC-257 = test: Growth inhibition of human UACC257 cells assessed as cell growth at 3 uM incubated for 48 hrs by sulforhodamine B assay relative to control; details: UACC-257, 48 h, read-out: Activity
UO-31 = test: Growth inhibition of human UO31 cells assessed as cell growth at 3 uM incubated for 48 hrs by sulforhodamine B assay relative to control; details: UO-31, 48 h, read-out: Activity
HCT-116 = test: Growth inhibition of human HCT116 cells assessed as cell growth at 30 uM incubated for 48 hrs by sulforhodamine B assay relative to control; details: HCT-116, 48 h, read-out: Activity
A498 = test: Growth inhibition of human A498 cells assessed as cell growth at 30 uM incubated for 48 hrs by sulforhodamine B assay relative to control; details: A498, 48 h, read-out: Activity
ACHN [10] = test: Growth inhibition of human ACHN cells assessed as cell growth at 0.003 uM incubated for 48 hrs by sulforhodamine B assay relative to control; details: read-out: Activity
SK-MEL-5 = test: Growth inhibition of human SK-MEL-5 cells assessed as cell growth at 0.003 uM incubated for 48 hrs by sulforhodamine B assay relative to control; details: SK-MEL-5, 48 h, read-out: Activity
K562 [11] = test: Growth inhibition of human K562 cells assessed as cell growth at 0.3 uM incubated for 48 hrs by sulforhodamine B assay relative to control; details: K562, 48 h, read-out: Activity
SR = test: Growth inhibition of human SR cells assessed as cell growth at 0.3 uM incubated for 48 hrs by sulforhodamine B assay relative to control; details: read-out: Activity
HOP-92 = test: Growth inhibition of human HOP92 cells assessed as cell growth at 0.3 uM incubated for 48 hrs by sulforhodamine B assay relative to control; details: HOP-92, 48 h, read-out: Activity
OVCAR-8 = test: Growth inhibition of human OVCAR8 cells assessed as cell growth at 3 uM incubated for 48 hrs by sulforhodamine B assay relative to control; details: OVCAR-8, 48 h, read-out: Activity
ACHN [12] = test: Growth inhibition of human ACHN cells assessed as cell growth at 30 uM incubated for 48 hrs by sulforhodamine B assay relative to control; details: read-out: Activity
OVCAR-5 [13] = test: Growth inhibition of human OVCAR5 cells assessed as cell growth at 30 uM incubated for 48 hrs by sulforhodamine B assay relative to control; details: OVCAR-5, 48 h, read-out: Activity

Row | Structure (SMILES) | growth at 10 µM (NCI-H23) | growth at 0.1 µM (SF-295 [1]) | growth at 1 µM (IGROV-1 [2]) | growth at 1 µM (RXF 393 [3]) | growth at 1 µM (SN12C) | growth at 0.01 µM (K562 [4]) | growth at 0.01 µM (OVCAR-5 [5]) | growth at 0.1 µM (SK-MEL-2) | growth at 100 µM (SF-295 [6]) | growth at 1 µM (OVCAR-3) | growth at 1 µM (MDA-MB-435) | growth at 10 µM (SF-268) | growth at 10 µM (SF-539) | growth at 0.01 µM (SF-295 [7]) | growth at 0.01 µM (MOLT-4) | growth at 0.01 µM (CCRF-CEM) | growth at 1 µM (HCT-15) | growth at 0.1 µM (SK-MEL-28) | growth at 1 µM (HCC 2998) | growth at 0.01 µM (RXF 393 [8]) | also measured
1 | COc1cc2cc(Oc3ccc(NC(=O)Nc4ccc(Cl)c(Cl)c4)cc3)c(C)nc2cc1OC | 15% | 87% | 110% | 104% | 85% | 108% | 103% | 116% | -56% | 94% | 85% | 44% | 29% | 88% | 108% | 102% | 88% | 91% | 96% | 106% | growth at 1 µM (A549): 66%
2 | COc1cc2cc(Oc3ccc(NC(=O)Nc4cc(C(F)(F)F)cc(C(F)(F)F)c4)cc3)c(C)nc2cc1OC | -32% | 92% | 31% | 93% | 35% | 110% | 87% | 94% | -84% | 27% | 84% | -61% | -72% | 88% | 104% | 97% | 41% | 102% | 79% | 100% | growth at 1 µM (A549): 65%
3 | COc1cc2cc(Oc3ccc(NC(=O)Nc4ccc(Cl)c(C(F)(F)F)c4)cc3)c(C)nc2cc1OC |  |  |  |  |  |  |  |  |  |  |  |  |  |  |  |  |  |  |  |  | growth at 0.3 µM (IGROV-1 [9]): 117%; growth at 3 µM (UACC-257): -13%; growth at 3 µM (UO-31): -17%; growth at 30 µM (HCT-116): -83%; growth at 30 µM (A498): -98%; growth at 0.003 µM (ACHN [10]): 95%; growth at 0.003 µM (SK-MEL-5): 100%; growth at 0.3 µM (K562 [11]): 93%; growth at 0.3 µM (SR): 91%; growth at 0.3 µM (HOP-92): 84%; growth at 3 µM (OVCAR-8): 6%; growth at 30 µM (ACHN [12]): -85%; growth at 30 µM (OVCAR-5 [13]): -81%
4 | Cc1nc2cc(O)c(O)cc2cc1Oc1ccc(NC(=O)Nc2ccc(Cl)c(Cl)c2)cc1 |  |  |  |  |  |  |  |  |  |  |  |  |  |  |  |  |  |  |  |  | growth at 0.3 µM (IGROV-1 [9]): 103%; growth at 3 µM (UACC-257): 87%; growth at 3 µM (UO-31): 100%; growth at 30 µM (HCT-116): -26%; growth at 30 µM (A498): 75%; growth at 0.003 µM (ACHN [10]): 103%; growth at 0.003 µM (SK-MEL-5): 98%; growth at 0.3 µM (K562 [11]): 123%; growth at 0.3 µM (SR): 98%; growth at 0.3 µM (HOP-92): 77%; growth at 3 µM (OVCAR-8): 66%; growth at 30 µM (ACHN [12]): -18%; growth at 30 µM (OVCAR-5 [13]): -6%

From ChEMBL document CHEMBL3994622, “Design and synthesis of new RAF kinase-inhibiting antiproliferative quinoline derivatives. Part 2: Diarylurea derivatives” (Eur J Med Chem, 2017)
